According to ChEMBL document CHEMBL6121034, “Expanding the Chemical Space of Reverse Fosmidomycin Analogs” (ACS Med Chem Lett, 2025):
Values after ≈ are worked out from the molar mass of the structure shown.

What was measured:
[1] = target: T1, 1-deoxy-D-xylulose 5-phosphate reductoisomerase (Mycobacterium tuberculosis, UniProt P9WNS1); assay: Inhibition of recombinant Mycobacterium tuberculosis DXR extracted from Escherichia coli M15 using DXP as substrate by NADPH consumption based photometric assay
T1 sequence (P9WNS1 whole entry): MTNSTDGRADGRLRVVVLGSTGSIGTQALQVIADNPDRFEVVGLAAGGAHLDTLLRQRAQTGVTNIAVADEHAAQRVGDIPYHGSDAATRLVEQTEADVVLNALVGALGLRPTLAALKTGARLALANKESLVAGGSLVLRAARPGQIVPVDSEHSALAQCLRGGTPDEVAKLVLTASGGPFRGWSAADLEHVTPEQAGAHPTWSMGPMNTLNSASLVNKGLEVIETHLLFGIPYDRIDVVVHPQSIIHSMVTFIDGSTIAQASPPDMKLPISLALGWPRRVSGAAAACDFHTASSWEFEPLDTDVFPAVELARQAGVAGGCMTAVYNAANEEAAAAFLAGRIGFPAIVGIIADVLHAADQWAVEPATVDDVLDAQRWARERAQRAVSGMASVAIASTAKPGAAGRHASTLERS

[2] = target: T2, 1-deoxy-D-xylulose 5-phosphate reductoisomerase (Escherichia coli K-12, UniProt P45568); assay: Inhibition of recombinant Escherichia coli DXR extracted from Escherichia coli M15 using DXP as substrate by NADPH consumption based photometric assay
T2 sequence (P45568 whole entry): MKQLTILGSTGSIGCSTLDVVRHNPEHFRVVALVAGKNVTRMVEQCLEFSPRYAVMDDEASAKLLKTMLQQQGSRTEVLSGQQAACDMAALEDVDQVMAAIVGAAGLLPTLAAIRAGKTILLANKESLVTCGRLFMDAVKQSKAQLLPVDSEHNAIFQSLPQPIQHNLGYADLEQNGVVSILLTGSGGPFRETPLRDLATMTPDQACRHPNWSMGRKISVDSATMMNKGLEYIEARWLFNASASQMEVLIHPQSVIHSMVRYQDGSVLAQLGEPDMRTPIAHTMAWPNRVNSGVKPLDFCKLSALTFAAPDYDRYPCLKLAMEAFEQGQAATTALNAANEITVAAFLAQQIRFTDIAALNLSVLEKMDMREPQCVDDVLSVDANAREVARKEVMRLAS

[3] = test system: Plasmodium falciparum; assay: Antiparasitic activity against multidrug-resistant Plasmodium falciparum Dd2 at asexual stage infected in O Rh+ erythrocytes by ELISA method; format: functional, organism-based; details: Dd2, Erythrocyte
[4] = Selectivity ratio of IC50 for antiparasitic activity against multidrug-resistant Plasmodium falciparum Dd2 at asexual stage infected in O Rh+ erythrocytes to IC50 for inhibition of Plasmodium falciparum DXR extracted from Escherichia coli
[5] = test system: Plasmodium falciparum; assay: Antiparasitic activity against CQ-sensitive Plasmodium falciparum 3D7 at asexual stage infected in O Rh+ erythrocytes by ELISA; format: functional, organism-based; details: 3D7, Erythrocyte
[6] = test system: Mycobacterium tuberculosis; assay: Antibacterial activity against wild-type Mycobacterium tuberculosis H37Rv incubated for 5 days by CLSI based broth microdilution assay; format: functional; details: 120 h, time 5 day
[7] = Selectivity ratio of IC50 for antiparasitic activity against CQ-sensitive Plasmodium falciparum 3D7 at asexual stage infected in O Rh+ erythrocytes to IC50 for inhibition of Plasmodium falciparum DXR extracted from Escherichia coli
[8] = target: T3, 1-deoxy-D-xylulose 5-phosphate reductoisomerase, apicoplastic (Plasmodium falciparum (isolate 3D7), UniProt Q8IKG4); assay: Inhibition of Plasmodium falciparum DXR extracted from Escherichia coli using DXP as substrate by NADPH consumption based photometric assay
T3 sequence (Q8IKG4 whole entry): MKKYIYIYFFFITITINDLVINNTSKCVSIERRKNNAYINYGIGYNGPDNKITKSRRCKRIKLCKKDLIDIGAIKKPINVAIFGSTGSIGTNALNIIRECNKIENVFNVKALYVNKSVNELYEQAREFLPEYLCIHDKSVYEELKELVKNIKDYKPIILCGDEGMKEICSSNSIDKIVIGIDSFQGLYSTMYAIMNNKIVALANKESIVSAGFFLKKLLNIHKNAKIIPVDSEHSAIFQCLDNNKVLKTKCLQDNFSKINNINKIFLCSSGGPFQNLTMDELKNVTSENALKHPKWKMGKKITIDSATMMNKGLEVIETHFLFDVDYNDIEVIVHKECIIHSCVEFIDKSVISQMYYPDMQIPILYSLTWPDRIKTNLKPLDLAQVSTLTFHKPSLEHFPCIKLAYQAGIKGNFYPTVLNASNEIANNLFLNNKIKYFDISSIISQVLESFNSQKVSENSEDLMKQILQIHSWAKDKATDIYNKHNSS

[9] = test system: Escherichia coli; assay: Antibacterial activity against Escherichia coli ATCC 25922 […] by CLSI based broth microdilution assay; format: functional
[10] = test system: Escherichia coli; assay: Antibacterial activity against Escherichia coli incubated for 20 hrs; format: functional

Compound CN(O)C(=O)CSC(c1ccc(OCCCCCCN2C(=O)c3ccccc3C2=O)cc1)P(=O)(O)O (racemic) has an IC50 [1] of 160 nM, an IC50 [2] of 13 nM and an IC50 [3] of 1.9 µM. The “Ratio IC50” value [4] was 90, the IC50 [5] was 2.6 µM and the MIC [6] was greater than 100 µM. For the same compound, the “Ratio IC50” value [7] was 120, the IC50 [8] was 21 nM and the MIC [9] was greater than 100 µM.

With O=CN(O)CCCP(=O)(O)O [FOSMIDOMYCIN] the MIC [10] was 6.25 µM (≈ 1.14 µg/mL).

CN(O)C(=O)CSC(c1cccc(OCCCCCCN2C(=O)c3ccccc3C2=O)c1)P(=O)(O)O (racemic) gave an IC50 [1] of 1700 nM, an IC50 [2] of 68 nM and an IC50 [3] of 9.8 µM. For the same compound, the “Ratio IC50” value [4] was 100, the IC50 [5] was greater than 12 µM and the MIC [6] was greater than 100 µM. For the same compound, the “Ratio IC50” value [7] was greater than 120, the IC50 [8] was 97 nM and the MIC [9] was greater than 100 µM.

Compound CCCCCCOc1ccc(C(SCC(=O)N(C)O)P(=O)(O)O)cc1 (racemic) has an IC50 [1] of 92 nM, an IC50 [2] of 17 nM and an IC50 [3] of 5.8 µM. The “Ratio IC50” value [4] was 120, the IC50 [5] was 8 µM and the MIC [6] was greater than 100 µM. For the same compound, the “Ratio IC50” value [7] was 170, the IC50 [8] was 48 nM and the MIC [9] was greater than 100 µM.
